Measurements as given in patent publication US11214565B2, “Compound, compositions, and methods” (Denali Therapeutics Inc., priority 2015, dated 2022).

Molecular target: LRRK2 G2019S enzyme (Homo sapiens (Human), UniProt Q5S007, G2019S)
Assay: LRRK2 G2019S TR-FRET biochemical kinase assay (LRRKtide substrate)
Conditions: Table A-2; 5 nM LRRK2, 134 μM ATP, 60 minute reaction, 23° C.
Summary of the method: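 5 nM LRRK2 G2019S preincubated 20 min with LRRKtide and compound (3.162-fold dilution series) in Tris pH 7.5, MgCl2, EGTA, Brij-35, DTT, then reacted 60 min at 23 °C with 134 μM ATP. EDTA-stopped; pLRRKtide antibody detection, TR-FRET read at 340 nm excitation, 520/490–495 nm emission.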

Chain of LRRK2 G2019S enzyme (Q5S007 whole entry G2019S): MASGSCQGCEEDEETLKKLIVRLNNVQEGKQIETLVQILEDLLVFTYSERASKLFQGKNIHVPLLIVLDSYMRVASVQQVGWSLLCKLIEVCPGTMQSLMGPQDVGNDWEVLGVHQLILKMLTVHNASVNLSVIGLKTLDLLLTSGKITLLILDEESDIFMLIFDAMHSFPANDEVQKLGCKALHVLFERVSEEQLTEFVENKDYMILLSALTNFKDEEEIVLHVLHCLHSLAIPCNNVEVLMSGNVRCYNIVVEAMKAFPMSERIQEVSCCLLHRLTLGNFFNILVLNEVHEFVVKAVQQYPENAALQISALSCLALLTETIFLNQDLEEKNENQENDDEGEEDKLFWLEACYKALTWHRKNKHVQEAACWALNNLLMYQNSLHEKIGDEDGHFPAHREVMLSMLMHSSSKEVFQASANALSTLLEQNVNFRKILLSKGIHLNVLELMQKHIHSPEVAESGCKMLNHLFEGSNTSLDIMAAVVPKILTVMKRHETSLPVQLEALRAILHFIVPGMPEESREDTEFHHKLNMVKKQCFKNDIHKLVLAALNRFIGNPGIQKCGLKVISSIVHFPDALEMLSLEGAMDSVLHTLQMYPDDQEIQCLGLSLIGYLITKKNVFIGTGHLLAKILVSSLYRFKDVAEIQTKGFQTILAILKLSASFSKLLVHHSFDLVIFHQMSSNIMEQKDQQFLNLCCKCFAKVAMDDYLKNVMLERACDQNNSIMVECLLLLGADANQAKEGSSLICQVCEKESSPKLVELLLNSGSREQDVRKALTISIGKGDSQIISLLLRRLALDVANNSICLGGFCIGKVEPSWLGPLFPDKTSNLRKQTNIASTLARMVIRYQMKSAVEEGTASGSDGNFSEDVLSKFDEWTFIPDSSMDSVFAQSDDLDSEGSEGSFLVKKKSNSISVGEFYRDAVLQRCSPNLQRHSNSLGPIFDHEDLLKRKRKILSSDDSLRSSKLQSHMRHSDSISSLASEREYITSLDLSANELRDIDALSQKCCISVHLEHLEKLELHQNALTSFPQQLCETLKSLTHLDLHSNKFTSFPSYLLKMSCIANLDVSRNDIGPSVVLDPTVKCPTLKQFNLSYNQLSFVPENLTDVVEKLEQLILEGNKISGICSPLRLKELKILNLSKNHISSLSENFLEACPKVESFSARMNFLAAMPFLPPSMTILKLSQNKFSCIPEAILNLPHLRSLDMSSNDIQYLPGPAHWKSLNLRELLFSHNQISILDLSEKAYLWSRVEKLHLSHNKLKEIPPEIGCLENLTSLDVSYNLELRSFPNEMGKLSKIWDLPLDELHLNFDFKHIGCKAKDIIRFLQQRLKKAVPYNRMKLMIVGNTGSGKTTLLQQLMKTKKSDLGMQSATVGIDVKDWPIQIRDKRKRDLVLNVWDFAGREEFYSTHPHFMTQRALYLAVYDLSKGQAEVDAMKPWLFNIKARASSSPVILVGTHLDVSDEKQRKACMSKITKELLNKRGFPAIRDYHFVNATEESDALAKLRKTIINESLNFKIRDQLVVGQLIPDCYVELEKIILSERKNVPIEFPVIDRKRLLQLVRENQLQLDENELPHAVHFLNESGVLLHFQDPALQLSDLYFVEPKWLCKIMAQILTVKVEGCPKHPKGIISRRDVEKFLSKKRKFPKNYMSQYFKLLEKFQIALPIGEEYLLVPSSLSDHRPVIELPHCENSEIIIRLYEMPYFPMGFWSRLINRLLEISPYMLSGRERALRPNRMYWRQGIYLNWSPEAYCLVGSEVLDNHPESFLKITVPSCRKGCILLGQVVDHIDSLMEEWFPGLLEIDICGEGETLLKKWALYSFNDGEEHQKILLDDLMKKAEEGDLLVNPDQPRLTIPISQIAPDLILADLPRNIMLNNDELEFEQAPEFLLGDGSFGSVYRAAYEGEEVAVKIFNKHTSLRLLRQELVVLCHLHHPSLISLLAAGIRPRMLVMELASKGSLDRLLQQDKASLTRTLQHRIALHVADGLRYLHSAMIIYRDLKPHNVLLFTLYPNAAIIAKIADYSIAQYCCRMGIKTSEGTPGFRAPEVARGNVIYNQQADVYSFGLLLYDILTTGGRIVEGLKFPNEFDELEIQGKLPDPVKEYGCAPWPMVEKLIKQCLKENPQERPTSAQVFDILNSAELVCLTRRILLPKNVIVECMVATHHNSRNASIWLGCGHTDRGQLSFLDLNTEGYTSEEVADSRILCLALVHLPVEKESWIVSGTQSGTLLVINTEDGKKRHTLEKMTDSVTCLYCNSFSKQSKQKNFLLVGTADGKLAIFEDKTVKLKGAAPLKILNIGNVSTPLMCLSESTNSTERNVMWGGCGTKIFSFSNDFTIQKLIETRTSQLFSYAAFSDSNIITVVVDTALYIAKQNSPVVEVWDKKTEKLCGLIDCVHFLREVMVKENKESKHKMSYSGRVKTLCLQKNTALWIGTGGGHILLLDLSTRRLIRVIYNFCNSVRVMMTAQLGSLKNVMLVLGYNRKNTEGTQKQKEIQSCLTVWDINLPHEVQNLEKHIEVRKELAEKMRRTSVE

IC50 [µM]	SMILES
< 0.03	Cc1c(Nc2ncc(C(F)(F)F)c(C3CC3)n2)cnn1[C@@H]1CCc2cn[nH]c21 [Compounds A-84]
< 0.03	Cc1nn([C@@H]2CCNC2=O)cc1Nc1ncc(C(F)(F)F)c(C2CC2)n1 [Compounds A-85]
< 0.03	Cc1nn([C@H]2CCNC2=O)cc1Nc1ncc(C(F)(F)F)c(C2CC2)n1 [Compounds A-86]
< 0.03	Cc1nn([C@@H]2CCc3cn[nH]c32)cc1Nc1ncc(C(F)(F)F)c(C2CC2)n1 [Compounds A-89]
< 0.03	Cc1nn([C@H]2CCc3cn[nH]c32)cc1Nc1ncc(C(F)(F)F)c(C2CC2)n1 [Compounds A-90]
0.03 to 0.06	Cc1c(Nc2ncc(C(F)(F)F)c(C3CC3)n2)cnn1[C@H]1CCNC1=O [Compounds A-91]
< 0.03	Cc1c(Nc2ncc(C(F)(F)F)c(C3CC3)n2)cnn1[C@H]1CCc2cn[nH]c21 [Compounds A-92]
< 0.03	Cc1nn([C@@]2(C)CCNC2=O)cc1Nc1ncc(C(F)(F)F)c(C2CC2)n1 [Compounds A-94]
< 0.03	Cc1nn([C@]2(C)CCNC2=O)cc1Nc1ncc(C(F)(F)F)c(C2CC2)n1 [Compounds A-95]
< 0.03	Cc1nn([C@@](C)(C(N)=O)C(F)F)cc1Nc1ncc(C(F)(F)F)c(C2CC2)n1 [Compounds A-96]
0.03 to 0.06	Cc1nn([C@](C)(C(N)=O)C(F)F)cc1Nc1ncc(C(F)(F)F)c(C2CC2)n1 [Compounds A-97]

Same assay, conditions: Table D-4; 5 nM LRRK2, 134 μM ATP, 60 minute reaction, 23° C.

SMILES	IC50 [µM]
CNc1nc(Nc2cnn(C3CCCn4ccnc43)c2C)ncc1C(F)(F)F [Compound D-169]	> 0.06
CCNc1nc(Nc2cnn([C@H]3C[C@H](N4CC[C@H](F)C4)C3)c2C)ncc1C(F)(F)F [Compound D-195]	< 0.03
CCNc1nc(Nc2cnn([C@H]3C[C@@H](N4CC[C@H](F)C4)C3)c2C)ncc1C(F)(F)F [Compound D-196]	< 0.03
CCNc1nc(Nc2cnn([C@H]3C[C@H](N4CC[C@@H](F)C4)C3)c2C)ncc1C(F)(F)F [Compound D-197]	< 0.03
CCNc1nc(Nc2cnn([C@H]3C[C@@H](N4CC[C@@H](F)C4)C3)c2C)ncc1C(F)(F)F [Compound D-198]	< 0.03
CCNc1nc(Nc2cn(C(C)(C#N)CF)nc2C)ncc1C(F)(F)F [Compound D-203]	< 0.03
CCNc1nc(Nc2cn(C(C#N)(CF)CF)nc2C)ncc1C(F)(F)F [Compound D-204]	< 0.03
CCNc1nc(Nc2cn([C@H]3CCc4ncsc43)nc2C)ncc1C(F)(F)F [Compounds D-86]	< 0.03
CNc1nc(Nc2cn(C(C)COC(F)F)nc2C)ncc1C(F)(F)F [Compounds D-96]	< 0.03
CCNc1nc(Nc2cn(C3Cc4nccn4C3)nc2C)ncc1C(F)(F)F [Compounds D-102]	< 0.03
CNc1nc(Nc2cnn(C3CCC(n4nccn4)C3)c2C)ncc1C(F)(F)F [Compounds D-107]	< 0.03
CNc1nc(Nc2cnn([C@@H]3CCn4cncc43)c2C)ncc1C(F)(F)F [Compounds D-121]	< 0.03
CCNc1nc(Nc2cn([C@H]3CCn4nccc43)nc2C)ncc1C(F)(F)F [Compounds D-122]	< 0.03
CNc1nc(Nc2cnn([C@@H]3CCC(n4nccn4)C3)c2C)ncc1C(F)(F)F (stereo partly drawn) [Compounds D-133]	< 0.03
CNc1nc(Nc2cnn([C@H]3CCC(n4nccn4)C3)c2C)ncc1C(F)(F)F (stereo partly drawn) [Compounds D-134]	< 0.03
CNc1nc(Nc2cnn([C@@H]3CCC(n4nccn4)C3)c2C)ncc1C(F)(F)F (stereo partly drawn) [Compounds D-141]	< 0.03

SMILES	IC50 [µM]
COc1nc(Nc2cnn([C@H]3CCn4ccnc43)c2C)ncc1C(F)(F)F [Compounds D-142]	> 0.06
CNc1nc(Nc2cn([C@H]3CCC(n4ccnn4)C3)nc2C)ncc1C(F)(F)F (stereo partly drawn) [Compounds D-143]	0.03 to 0.06
CNc1nc(Nc2cnn([C@H]3CCC(n4nccn4)C3)c2C)ncc1C(F)(F)F (stereo partly drawn) [Compounds D-149]	0.03 to 0.06
CCNc1nc(Nc2cnn([C@H]3CCCn4ccnc43)c2C)ncc1C(F)(F)F [Compounds D-151]	< 0.03
CCNc1nc(Nc2cnn([C@@H]3CCn4ccnc43)c2C)ncc1C(F)(F)F [Compounds D-152]	< 0.03
CNc1nc(Nc2cnn([C@H]3CCC(n4nccn4)C3)c2C)ncc1C(F)(F)F (stereo partly drawn) [Compounds D-156]	< 0.03
CCNc1nc(Nc2cn([C@H]3Cc4nccn4C3)nc2C)ncc1C(F)(F)F [Compounds D-163]	< 0.03
CNc1nc(Nc2cnn([C@H]3CCn4cncc43)c2C)ncc1C(F)(F)F [Compounds D-166]	< 0.03
CCNc1nc(Nc2cnn([C@H]3CCCn4ccnc43)c2C)ncc1C(F)(F)F [Compounds D-170]	< 0.03
CCNc1nc(Nc2cnn([C@H]3CCc4c(C)noc43)c2C)ncc1C(F)(F)F [Compounds D-171]	< 0.03
CCNc1nc(Nc2cnn([C@H]3CCn4ccnc43)c2C)ncc1C(F)(F)F [Compounds D-172]	< 0.03
CNc1nc(Nc2cnn([C@@H]3CCc4c(C)noc43)c2C)ncc1C(F)(F)F [Compounds D-173]	> 0.06
CNc1nc(Nc2cnn([C@H]3CCC(n4ccnn4)C3)c2C)ncc1C(F)(F)F (stereo partly drawn) [Compounds D-175]	< 0.03
CNc1nc(Nc2cn(C3(C)CCn4ccnc43)nc2C)ncc1C(F)(F)F [Compounds D-188]	> 0.06
CNc1nc(Nc2cn(C3(C)CCn4ccnc43)nc2C)ncc1C(F)(F)F [Compounds D-189]	< 0.03

More lines, now with the values ahead:

IC50 [µM]	SMILES
< 0.03	CCNc1nc(Nc2cn(C3CCc4nc[nH]c43)nc2C)ncc1C(F)(F)F [Compound D-131]
< 0.03	CCNc1nc(Nc2cnn([C@H]3C[C@H](n4cnc(C(F)(F)F)n4)C3)c2C)ncc1C(F)(F)F [Compound D-135]
< 0.03	CNc1nc(Nc2cn(C3(c4ncn(C)n4)CCC3)nc2C)ncc1C(F)(F)F [Compound D-136]
< 0.03	CNc1nc(Nc2cn(C3CCn4ccnc43)nc2C)ncc1C(F)(F)F [Compound D-137]
< 0.03	CCNc1nc(Nc2cn([C@H]3C[C@H](OC(F)F)C3)nc2C)ncc1C(F)(F)F [Compound D-138]
< 0.03	CCNc1nc(Nc2cnn([C@H]3C[C@@H](N4CCCC4=O)C3)c2C)ncc1C(F)(F)F [Compound D-139]
< 0.03	CCNc1nc(Nc2cn(C(F)(F)C(=O)NC3CC3)nc2C)ncc1C(F)(F)F [Compound D-140]
< 0.03	CNc1nc(Nc2cnn(C3(CC#N)CC3)c2C)ncc1C(F)(F)F [Compound D-144]
< 0.03	CCNc1nc(Nc2cnn(C3CCn4nccc43)c2C)ncc1C(F)(F)F [Compound D-145]
< 0.03	CCNc1nc(Nc2cn(C3CCn4nccc43)nc2C)ncc1C(F)(F)F [Compound D-146]
< 0.03	CCNc1nc(Nc2cnn([C@H]3C[C@@H](S(C)(=O)=O)C3)c2C)ncc1C(F)(F)F [Compound D-147]
< 0.03	CCNc1nc(Nc2cnn([C@H]3C[C@@H](n4nccn4)C3)c2C)ncc1C(F)(F)F [Compound D-148]
< 0.03	CNc1nc(Nc2cnn(C3CCn4cncc43)c2C)ncc1C(F)(F)F [Compound D-150]
< 0.03	CCNc1nc(Nc2cnn([C@H]3C[C@H](N4CCOCC4)C3)c2C)ncc1C(F)(F)F [Compound D-153]
< 0.03	CCNc1nc(Nc2cnn([C@H]3C[C@H](n4nccn4)C3)c2C)ncc1Cl [Compound D-154]
< 0.03	CCNc1nc(Nc2cnn(C3(CC#N)CC3)c2C)ncc1C(F)(F)F [Compound D-155]
< 0.03	CNc1nc(Nc2cnn(C3(COC(F)F)CC3)c2C)ncc1C(F)(F)F [Compound D-157]
< 0.03	CNc1nc(Nc2cnn(CC3(CC#N)CC3)c2C)ncc1C(F)(F)F [Compound D-157a]

IC50 [µM]	SMILES
< 0.03	CCNc1nc(Nc2cnn(CC3(CC#N)CC3)c2C)ncc1C(F)(F)F [Compound D-158]
< 0.03	CNC(=O)C(F)(F)n1cc(Nc2ncc(C(F)(F)F)c(NC)n2)c(C)n1 [Compound D-159]
< 0.03	CCNC(=O)C(F)(F)n1cc(Nc2ncc(C(F)(F)F)c(NC)n2)c(C)n1 [Compound D-160]
< 0.03	CCNc1nc(Nc2cn(C(F)(F)C(=O)O)nc2C)ncc1C(F)(F)F [Compound D-161]
< 0.03	CNc1nc(Nc2cnn([C@H]3C[C@H](n4nccn4)C3)c2C)ncc1C(F)(F)F [Compound D-162]
< 0.03	CCNc1nc(Nc2cn(C(F)(F)C(N)=O)nc2Cl)ncc1C(F)(F)F [Compound D-164]
< 0.03	CNc1nc(Nc2cnn([C@H]3C[C@@H](n4cc(F)cn4)C3)c2C)ncc1C(F)(F)F [Compound D-165]
< 0.03	CNc1nc(Nc2cn([C@H]3C[C@H](c4nncs4)C3)nc2C)ncc1C(F)(F)F [Compound D-167]
< 0.03	CNc1nc(Nc2cnn([C@H]3C[C@H](c4nncs4)C3)c2C)ncc1C(F)(F)F [Compound D-168]
< 0.03	COc1nc(Nc2cn(C3(C)CCn4ccnc43)nc2C)ncc1Br [Compound D-178]
< 0.03	COc1nc(Nc2cn(C(F)(F)C(N)=O)nc2C)ncc1Br [Compound D-183]
< 0.03	COc1nc(Nc2cnn([C@H]3C[C@@H](n4nccn4)C3)c2C)ncc1Br [Compound D-184]
< 0.03	CNc1nc(Nc2cnn([C@H]3C[C@@H](n4nccn4)C3)c2C)ncc1Br [Compound D-185]
< 0.03	COc1nc(Nc2cnn([C@H]3C[C@H](n4nccn4)C3)c2C)ncc1Cl [Compound D-186]
< 0.03	CCNc1nc(Nc2cnn([C@H]3C[C@H](N4CCN(C)CC4)C3)c2C)ncc1C(F)(F)F [Compound D-187]
< 0.03	CNc1nc(Nc2cnn([C@H]3C[C@@H](n4cc(F)cn4)C3)c2C)ncc1Br [Compound D-192]
< 0.03	CNc1nc(Nc2cnn([C@H]3C[C@H](n4cc(F)cn4)C3)c2C)ncc1Br [Compound D-193]
< 0.03	CCNc1nc(Nc2cnn([C@H]3C[C@@H](N4CCN(C)CC4)C3)c2C)ncc1C(F)(F)F [Compound D-194]
